Experimental findings from patent US9150566B2, “2-(1,2,3-triazol-2-yl)benzamide and 3-(1,2,3-triazol-2-YL)picolinamide derivatives as orexin receptor antagonists” (ACTELION PHARMACEUTICALS LTD., priority 2011, dated 2015) are described below.

Series [1] has as its target human orexin-2 receptor (Homo sapiens (Human), UniProt O43614). Briefly: In vitro intracellular calcium measurements (FLIPR), antagonistic activity on orexin-2 receptor. The class given is cell-based. Conditions: CHO cells expressing human orexin-2 receptor; FLIPR; 3 nM orexin-A agonist; 120 min antagonist incubation; geometric mean if determined several times; read-out: IC50 OX2. In outline:
(§1)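 CHO cells expressing human orexin-1 or orexin-2 receptor were seeded overnight, preincubated with antagonist for 120 min, then stimulated with agonist in a FLIPR Tetra.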
For orientation: Calcium assays in cells follow changes in intracellular calcium, usually with a dye or a luminescent sensor.

The target in series [2] is CYP3A4 (Homo sapiens (Human), UniProt P08684). Briefly: CYP3A4 inhibition assay (human liver microsomes, testosterone 6β-hydroxylation). The settings on record: read-out: CYP3A4 IC50, 40 μM testosterone. On the technique in general: Liver microsomes are vesicles of endoplasmic reticulum, rich in cytochrome P450 enzymes.
Chain of CYP3A4 (P08684 whole entry): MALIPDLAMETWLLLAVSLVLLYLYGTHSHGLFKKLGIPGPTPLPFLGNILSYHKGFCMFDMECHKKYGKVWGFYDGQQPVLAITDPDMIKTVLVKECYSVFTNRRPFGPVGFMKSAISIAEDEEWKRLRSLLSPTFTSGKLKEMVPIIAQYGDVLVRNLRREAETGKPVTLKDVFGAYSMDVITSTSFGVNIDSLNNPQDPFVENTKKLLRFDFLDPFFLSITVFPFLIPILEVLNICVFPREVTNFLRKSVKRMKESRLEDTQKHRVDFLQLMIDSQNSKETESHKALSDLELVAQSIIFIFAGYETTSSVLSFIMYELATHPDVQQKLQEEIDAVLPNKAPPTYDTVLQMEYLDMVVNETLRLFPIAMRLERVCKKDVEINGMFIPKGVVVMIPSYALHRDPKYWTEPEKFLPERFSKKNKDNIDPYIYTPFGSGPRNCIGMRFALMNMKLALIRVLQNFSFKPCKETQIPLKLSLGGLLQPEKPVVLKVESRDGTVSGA
Series [3] has as its target human orexin-1 receptor (Homo sapiens (Human), UniProt O43613). Briefly: In vitro intracellular calcium measurements (FLIPR), antagonistic activity on orexin-1 receptor. The series is classed as cell-based. The settings on record: CHO cells expressing human orexin-1 receptor; FLIPR; 3 nM orexin-A agonist; 120 min antagonist incubation; geometric mean if determined several times; read-out: IC50 OX1. Summed up: as §1

pIC50: −log10 of the molar value.

Chain of human orexin-2 receptor (O43614 whole entry): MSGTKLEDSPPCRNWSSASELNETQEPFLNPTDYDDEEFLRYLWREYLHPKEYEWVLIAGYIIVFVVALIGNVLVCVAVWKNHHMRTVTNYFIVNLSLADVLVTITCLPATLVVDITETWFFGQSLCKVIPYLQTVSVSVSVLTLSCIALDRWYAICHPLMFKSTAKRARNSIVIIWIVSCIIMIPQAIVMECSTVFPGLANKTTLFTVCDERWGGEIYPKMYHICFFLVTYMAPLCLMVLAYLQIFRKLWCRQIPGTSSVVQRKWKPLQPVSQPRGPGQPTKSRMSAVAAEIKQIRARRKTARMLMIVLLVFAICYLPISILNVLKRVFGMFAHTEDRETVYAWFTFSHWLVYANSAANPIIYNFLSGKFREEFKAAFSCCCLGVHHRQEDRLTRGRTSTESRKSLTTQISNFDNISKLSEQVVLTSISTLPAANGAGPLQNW
Chain of human orexin-1 receptor (O43613 whole entry): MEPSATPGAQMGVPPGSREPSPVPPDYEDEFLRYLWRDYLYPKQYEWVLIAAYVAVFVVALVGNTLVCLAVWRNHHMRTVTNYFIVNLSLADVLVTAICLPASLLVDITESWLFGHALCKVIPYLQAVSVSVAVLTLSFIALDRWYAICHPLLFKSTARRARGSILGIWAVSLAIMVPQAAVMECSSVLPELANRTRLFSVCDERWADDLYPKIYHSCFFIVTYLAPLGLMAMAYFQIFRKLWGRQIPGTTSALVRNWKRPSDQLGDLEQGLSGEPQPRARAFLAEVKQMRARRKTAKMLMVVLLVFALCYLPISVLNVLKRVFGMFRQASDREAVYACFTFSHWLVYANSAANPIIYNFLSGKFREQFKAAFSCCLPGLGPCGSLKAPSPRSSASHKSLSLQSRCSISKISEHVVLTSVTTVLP

The pIC50 is the IC50 on a negative log10 scale, so that one unit is a factor of ten. On to `O=C(c1cc(F)c(F)cc1-n1nccn1)N1CCOC[C@H]1Cc1cccc(-n2nccn2)c1` [Example 91, (4,5-Difluoro-2-[1,2,3]triazol-2-yl-phenyl)-[(R)-3-(3-[1,2,3]triazol-2-yl-benzyl)-morpholin-4-yl]-methanone], for which the negative-log IC50 (pIC50) is 6.21 in series [1], 4.77 in series [2] and 8.00 in series [3].

As to `O=C(c1ccccc1-n1nccn1)N1CCOC[C@H]1Cc1cc(-n2nccn2)ccc1F` [Example 57, [(R)-3-(2-Fluoro-5-[1,2,3]triazol-2-yl-benzyl)-morpholin-4-yl]-(2-[1,2,3]triazol-2-yl-phenyl)-methanone], the pIC50 in series [1] is 5.56; in series [2], 4.70; in series [3], 7.32.

As to `O=C(c1ccccc1-n1nccn1)N1CCOC[C@H]1Cc1ccc(Cl)c(-c2ncon2)c1` [Example 90, [(R)-3-(4-Chloro-3-[1,2,4]oxadiazol-3-yl-benzyl)-morpholin-4-yl]-(2-[1,2,3]triazol-2-yl-phenyl)-methanone], the negative logarithm of the IC50 (pIC50) in series [1] is 6.32; in series [2], 4.68; in series [3], 7.92.

Take `CC[C@@H]1CN(C(=O)c2ccc(C)cc2-n2nccn2)[C@H](Cc2cccc(-n3nccn3)c2)CO1` [Example 144, [(2R,5R)-2-Ethyl-5-(3-[1,2,3]triazol-2-yl-benzyl)-morpholin-4-yl]-(4-methyl-2-[1,2,3]triazol-2-yl-phenyl)-methanone]: the negative logarithm of the IC50 (pIC50) was 6.98 in series [1], 5.02 in series [2] and 8.30 in series [3].

Take `Cc1ccc(C(=O)N2C[C@@H](C)OC[C@H]2Cc2cccc(-c3ncccn3)c2)c(-n2nccn2)c1` [Example 110, [(2R,5R)-2-Methyl-5-(3-pyrimidin-2-yl-benzyl)-morpholin-4-yl]-(4-methyl-2-[1,2,3]triazol-2-yl-phenyl)-methanone]: the results for the pIC50 in series [1], in series [2] and in series [3] were 6.75, under 4.30 and 8.70, respectively.

With `Cc1ccc(-n2nccn2)c(C(=O)N2CCC[C@H]2Cc2cccc(-n3nccn3)c2)c1` [Ref. 2], the pIC50 was 8.10 in series [1], 5.48 in series [2] and 9.30 in series [3].

For the compound `CC[C@@H]1CN(C(=O)c2cc(C)ccc2-n2nccn2)[C@H](Cc2cccc(-n3nccn3)c2)CO1` [Example 142, [(2R,5R)-2-Ethyl-5-(3-[1,2,3]triazol-2-yl-benzyl)-morpholin-4-yl]-(5-methyl-2-[1,2,3]triazol-2-yl-phenyl)-methanone], the negative logarithm of the IC50 (pIC50) in series [1] is 6.54; in series [2], 5.04; in series [3], 8.30.

Turning to `Cc1ccc(-n2nccn2)c(C(=O)N2C[C@@H](C)OC[C@H]2Cc2cccc(-c3ncccn3)c2)c1` [Example 109, [(2R,5R)-2-Methyl-5-(3-pyrimidin-2-yl-benzyl)-morpholin-4-yl]-(5-methyl-2-[1,2,3]triazol-2-yl-phenyl)-methanone], the negative-log IC50 (pIC50) in series [1] was 6.98; in series [2] it was 4.37; in series [3] it was 9.00.

As to `Cc1ccc(C(=O)N2C[C@@H](C)OC[C@H]2Cc2cc(-n3ccnn3)ccc2F)c(-n2nccn2)c1` [Example 141, [(2R,5R)-5-(2-Fluoro-5-[1,2,3]triazol-1-yl-benzyl)-2-methyl-morpholin-4-yl]-(4-methyl-2-[1,2,3]triazol-2-yl-phenyl)-methanone], the results for the pIC50 in series [1], in series [2] and in series [3] were 6.37, 4.72 and 7.80, respectively.

`Cc1ccc(-n2nccn2)c(C(=O)N2CCOC[C@H]2Cc2cc(-c3ncon3)ccc2F)c1` [Example 174, [(R)-3-(2-Fluoro-5-[1,2,4]oxadiazol-3-yl-benzyl)-morpholin-4-yl]-(5-methyl-2-[1,2,3]triazol-2-yl-phenyl)-methanone]: the values for the pIC50 in series [1], in series [2] and in series [3] were 6.19, 4.30 and 8.10, respectively.
